What was measured:
[1] = system: Endogenous Target Genes for Wnt & Apoptotic Pathways in MDA-MB 231; assay: qPCR of Wnt and pro-apoptotic target genes, MDA-MB 231; type: cell-based; set-up: concentration or dose not given beside the values; settings: MDA-MB 231, 24 hrs, qPCR normalized to 36B4
Method: (§1) Given the effects of Compounds 1, 4, and 15 on biological functions (e.g., proliferation, viability, and apoptosis) in several cancer cell lines, we tested the effects of compounds 1, 4, and 15 on regulation of endogenous Wnt and pro-apoptotic gene expression. MDA-MB-231, MCF-7, PC-3, and HCT-116 cancerncells were treated with the indicated compounds for 24 hrs. over a dose range from 1.6 to 5000 nM. Gene expression was measured using qPCR, normalized to the housekeeping gene, 36B4, and calculated % change relative to DMSO control. NC, no change.

MDA-MB-231 = assay: inhibition of proliferation (PicoGreen DNA assay), MDA-MB-231; type: cell-based; settings: Homo sapiens
Method: (§2) We tested a subset of the 50 sulfonamide analogues for inhibition of proliferation of the MDA-MB-231, PC-3, MCF-7, and HCT-116 cancer cell lines. Following plating of the cells (24 hrs) in eight identical 96-well plates, the cells were treated with either Compound 1, 4, 15, or vehicle (DMSO) using a dose range of 1.6 to 5000 nM. After the lysis of cells, the cell lysate was resuspended in 25 μl PBS and the DNA was quantified using a PicoGreen assay by measuring fluorescence at Ex490 nm/Em535 nm. Cell proliferation was inhibited by Compounds 1, 4, and 15 for all the cancer cell lines tested with inhibition constants listed in Table 2.

[2] = system: HCT-116 and MCF-7 cancer cells; p53 −/− isogenic HCT-116 cells; assay: morphology change of cancer cells with and without p53; type: cell-based; settings: for morphology change in cancer cells with wild-type and mutant p53: HCT-116 and MCF-7, 500 nM for 24 hours; for morphology change in cells lacking p53: −/− p53 isogenic HCT-116 cells, 500 nM for 24 hours
Description: Using the same treatment conditions, this morphology change was not observed in […] cells lacking p53 (i.e., −/− p53, isogenic HCT-116 cells) highlighting the integral importance of p53 protein in the mechanism of action of the disclosed compounds.

PC-3 [3] = assay: stimulation of apoptosis, Caspase 3/7 cleavage (Caspase-Glo Kit), PC-3; type: cell-based; settings: Homo sapiens, PC-3, 24 hrs
Method: Given Compounds 1, 4, and 15 inhibited cancer cell proliferation, we tested whether compounds 1, 4, and 15 stimulated cancer cell apoptosis. The MDA-MB-231, MCF-7, PC-3, and HCT-116 cells were treated with the indicated compounds for 24 hrs. over a dose range from 1.6 to 5000 nM. Apoptosis was then measured by monitoring Caspase 3/7 cleavage (Caspase-Glo Kit).

[4] = cytotoxicity (Vibrant Cytotox assay), LNCap; type: cell-based; settings: human, LNCap cells
[5] = cytotoxicity (Vibrant Cytotox assay), HCT-116; type: cell-based; settings: human, HCT-116 cells; HCT-116, 24 hrs
Method: (§3) Given Compounds 1, 4, and 15 inhibited cancer cell proliferation and stimulated apoptosis, we tested the effects compounds 1, 4, and 15 on cancer cell viability and cytotoxicity. The MDA-MB-231, MCF-7, PC-3, and HCT-116 cells were treated with the indicated compounds for 24 hrs. over a dose range from 1.6 to 5000 nM. Viability and cytotoxicity were then measured by the Alamar Blue and Vibrant Cytotox assays respectively.

[6] = system: Endogenous Target Genes for Wnt & Apoptotic Pathways in LNCAP; assay: qPCR of Wnt and pro-apoptotic target genes, LNCAP; type: cell-based; set-up: MYC expression, % change relative to DMSO control / CCDN1 expression, % change relative to DMSO control / BAX expression, % change relative to DMSO control / BAK expression, % change relative to DMSO control / BBC3 expression, % change relative to DMSO control / FOS expression, % change relative to DMSO control: concentration or dose not given beside the values; settings: 24 hrs, qPCR normalized to 36B4
[7] = system: Endogenous Target Genes for Wnt & Apoptotic Pathways in HCT-116; assay: qPCR of Wnt and pro-apoptotic target genes, HCT-116; type: cell-based; set-up: MYC expression, % change relative to DMSO control / CCDN1 expression, % change relative to DMSO control / BAX expression, % change relative to DMSO control / BBC3 expression, % change relative to DMSO control / FOS expression, % change relative to DMSO control: concentration or dose not given beside the values; settings: HCT-116, 24 hrs, qPCR normalized to 36B4
Method: as §1

[8] = system: Wnt transcriptional activity; assay: cell-based Wnt-luciferase reporter assay (SuperTOPFlash); settings: for Relative potency for Wnt inhibition: relative to IWR-1, transfected HEK293A cells treated 12 hours, normalized to Renilla
Description: “Hit” 1 (FIG. 1) was identified as a Wnt inhibitor in a high-throughput screen of a library of 74,000 compounds using a cell-based Wnt-luciferase reporter assay as a readout of Wnt transcriptional activity. […] Wnt transcriptional activity was monitored in HEK-293T cells using a luciferase-based Wnt reporter (SuperTOPFlash) stimulated by Wnt3a conditioned media.
Medicinal chemical refinement of “hit” 1 was undertaken to improve its potency, maintain non-toxicity, increase water solubility and improve bioavailability. The SAR refinement of functional activity of “hit” 1 on the inhibition of the Wnt pathway was determined using a cell-based Wnt-luciferase reporter assay (described above). with Renilla Luciferase was used as a normalization for transfection efficiency. 6-8 hours after transfection, transfected HEK293A cells were treated with 1 and each analog for 12 hours. Both firefly and renilla luciferase activities were measured using a plate reader. A library of compounds was tested to obtain an SAR for 1. Compound 1 and its analogs are synthesized by a two step synthesis, Scheme 1.
Signaling was tested using a standard luciferase response system for canonical Wnt/β-catenin/TCF signaling. Briefly, we used a cell line that had been transfected with a luciferase reporter gene under the control of the response element of a transcription factor that is activated by association with β-catenin and is the target of canonical Wnt signaling.

[9] = cytotoxicity (Vibrant Cytotox assay), MDA-MB-231; type: cell-based; settings: human, MDA-MB-231 cells; MDA-MB-231, 24 hrs
Method: as §3

HCT-116 = assay: viability (Alamar Blue), HCT-116; type: cell-based; settings: Homo sapiens; HCT-116, 24 hrs
Method: as §3

PC-3 [10] = assay: inhibition of proliferation (PicoGreen DNA assay), PC-3; type: cell-based; settings: Homo sapiens
Method: as §2

CN1CCN(S(=O)(=O)c2ccc(N3CCCC3=O)cc2)c2ccccc21 [Compound 15, 1-(4-(4-methyl-3,4-dihydroquinoxalin-1(2H)-ylsulfonyl)phenyl)pyrrolidin-2-one]
BAK expression, % change relative to DMSO control [1]: −20%
BAX expression, % change relative to DMSO control [1]: −62%
BBC3 expression, % change relative to DMSO control [1]: −65%
CCDN1 expression, % change relative to DMSO control [1]: −22%
FOS expression, % change relative to DMSO control [1]: −10%
JUN expression, % change relative to DMSO control [1]: −38%
MYC expression, % change relative to DMSO control [1]: −50%
IC50 (MDA-MB-231): 25 nM
morphology change in cancer cells with wild-type and mutant p53 [2]: morphology change from a flat adherent cell to a rounded non-adherent one
morphology change in cells lacking p53 [2]: not observed
IC50 (PC-3 [3]): 32 nM
IC50 at 24 h [4]: > 5000 nM
IC50 at 24 h [5]: > 5000 nM
BAK expression, % change relative to DMSO control [6]: −45%
BAX expression, % change relative to DMSO control [6]: −58%
BBC3 expression, % change relative to DMSO control [6]: −55%
CCDN1 expression, % change relative to DMSO control [6]: −28%
FOS expression, % change relative to DMSO control [6]: −25%
JUN expression, % change relative to DMSO control [6]: +45%
MYC expression, % change relative to DMSO control [6]: −45%
BAK expression, % change relative to DMSO control [7]: +98%
BAX expression, % change relative to DMSO control [7]: −5%
BBC3 expression, % change relative to DMSO control [7]: −95%
CCDN1 expression, % change relative to DMSO control [7]: +25%
FOS expression, % change relative to DMSO control [7]: −84%
JUN expression, % change relative to DMSO control [7]: +775%
MYC expression, % change relative to DMSO control [7]: −70%
inhibition of Wnt transcriptional activity, IC50 (class symbol) ([8]; tested simultaneously with p53 reporter): ++++ (between 60 to 80% potency compared to IWR-1)
IC50 at 24 h [9]: > 5000 nM
IC50 (HCT-116): 9 nM
IC50 (PC-3 [10]): 20 nM

CC1CCc2ccccc2N1S(=O)(=O)c1ccc(N2CCCC2=O)cc1 (stereo not drawn) [Compound 4, 1-(4-(2-methyl-3,4-dihydroquinolin-1(2H)-ylsulfonyl)phenyl)pyrrolidin-2-one]
BAK expression, % change relative to DMSO control [1]: −50%
BAX expression, % change relative to DMSO control [1]: −65%
BBC3 expression, % change relative to DMSO control [1]: −80%
CCDN1 expression, % change relative to DMSO control [1]: −25%
FOS expression, % change relative to DMSO control [1]: +100%
JUN expression, % change relative to DMSO control [1]: −45%
MYC expression, % change relative to DMSO control [1]: −55%
IC50 (MDA-MB-231): 250 nM
morphology change in cancer cells with wild-type and mutant p53 [2]: morphology change from a flat adherent cell to a rounded non-adherent one
morphology change in cells lacking p53 [2]: not observed
IC50 (PC-3 [3]): 117 nM
IC50 at 24 h [4]: > 5000 nM
IC50 at 24 h [5]: > 5000 nM
BAK expression, % change relative to DMSO control [6]: −42%
BAX expression, % change relative to DMSO control [6]: −55%
BBC3 expression, % change relative to DMSO control [6]: −85%
CCDN1 expression, % change relative to DMSO control [6]: −30%
FOS expression, % change relative to DMSO control [6]: −38%
MYC expression, % change relative to DMSO control [6]: −40%
BAK expression, % change relative to DMSO control [7]: +110%
BBC3 expression, % change relative to DMSO control [7]: −90%
CCDN1 expression, % change relative to DMSO control [7]: −5%
FOS expression, % change relative to DMSO control [7]: −85%
JUN expression, % change relative to DMSO control [7]: +725%
MYC expression, % change relative to DMSO control [7]: −75%
Relative potency for Wnt inhibition [8]: ++++ (between 60 to 80% potency compared to IWR-1)
IC50 at 24 h [9]: > 5000 nM
IC50 (HCT-116): 52 nM
IC50 (PC-3 [10]): 100 nM

O=C1CCCN1c1ccc(S(=O)(=O)N2CCCc3ccccc32)cc1 [Compound 1, 1-(4-(3,4-dihydroquinolin-1(2H)-ylsulfonyl)phenyl)pyrrolidin-2-one]
BAK expression, % change relative to DMSO control [1]: −42%
BAX expression, % change relative to DMSO control [1]: −70%
BBC3 expression, % change relative to DMSO control [1]: −78%
CCDN1 expression, % change relative to DMSO control [1]: −72%
JUN expression, % change relative to DMSO control [1]: −50%
MYC expression, % change relative to DMSO control [1]: −70%
IC50 (MDA-MB-231): 100 nM
morphology change in cancer cells with wild-type and mutant p53 [2]: morphology change from a flat adherent cell to a rounded non-adherent one
morphology change in cells lacking p53 [2]: not observed
IC50 (PC-3 [3]): 49 nM
IC50 at 24 h [4]: > 5000 nM
IC50 at 24 h [5]: > 5000 nM
BAK expression, % change relative to DMSO control [6]: −22%
BAX expression, % change relative to DMSO control [6]: −30%
BBC3 expression, % change relative to DMSO control [6]: −90%
CCDN1 expression, % change relative to DMSO control [6]: −10%
FOS expression, % change relative to DMSO control [6]: −15%
MYC expression, % change relative to DMSO control [6]: −35%
BAK expression, % change relative to DMSO control [7]: +75%
BAX expression, % change relative to DMSO control [7]: +5%
BBC3 expression, % change relative to DMSO control [7]: −80%
CCDN1 expression, % change relative to DMSO control [7]: +40%
FOS expression, % change relative to DMSO control [7]: −70%
JUN expression, % change relative to DMSO control [7]: +525%
MYC expression, % change relative to DMSO control [7]: −45%
EC50 ([8]; Homo sapiens, HEK-293T cells, SuperTOPFlash stimulated by Wnt3a conditioned media, read-out: inhibition of Wnt transcriptional activity, EC50): ~25 nM
Relative potency for Wnt inhibition [8]: +++ (between 40 to 60% potency compared to IWR-1)
IC50 at 24 h [9]: > 5000 nM
IC50 (HCT-116): 30 nM
IC50 (PC-3 [10]): 20 nM
